Assay results published in the supplement of paper PMC10307832.

Columns and labels:
Experiment in all cases: relative viability (nuclei count vs DMSO), 5 days (fraction); higher = more cells survive
[1] = compound: C1COCCN1C2=NC(=NC3=C2OC4=C3C=CC=N4)C5=CC(=CC=C5)NC(=O)C6=CN=C(C=C6)N + CS(=O)(=O)CCNCc1ccc(-c2ccc3ncnc(Nc4ccc(OCc5cccc(F)c5)c(Cl)c4)c3c2)o1 [Lapatinib] (partner 2 µM)
Procedure, shortened: (§1)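 Lung cancer cell lines were pin-tool dosed in 1536-well plates on the day after seeding, with either a lone drug or a fixed anchor-drug dose plus five library-drug doses (not always all listed) in √10 steps. Nuclei were counted on 4× images after 5 days. Relative viability is the ratio of treated-well to vehicle-well nuclei counts, with each value a median of duplicate plates.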

[2] = compound: C1COCCN1C2=NC(=NC3=C2OC4=C3C=CC=N4)C5=CC(=CC=C5)NC(=O)C6=CN=C(C=C6)N + CS(=O)(=O)N1CCN(Cc2cc3nc(-c4cccc5[nH]ncc45)nc(N4CCOCC4)c3s2)CC1 [Pictilisib] (partner 1 µM)
Procedure, shortened: as §1

[3] = compound: C1COCCN1C2=NC(=NC3=C2OC4=C3C=CC=N4)C5=CC(=CC=C5)NC(=O)C6=CN=C(C=C6)N + Cc1nc(Nc2ncc(C(=O)Nc3c(C)cccc3Cl)s2)cc(N2CCN(CCO)CC2)n1 [Dasatinib] (partner 0.075 µM)
Procedure, shortened: as §1

SGI-1776 + Trametinib = compound: CN1CCC(CNc2ccc3ncc(-c4cccc(OC(F)(F)F)c4)n3n2)CC1 [SGI-1776] + CC(=O)Nc1cccc(-n2c(=O)n(C3CC3)c(=O)c3c(Nc4ccc(I)cc4F)n(C)c(=O)c(C)c32)c1 [Trametinib] (partner 0.02 µM)
Procedure, shortened: as §1

Q: How did the relative viability ([1]; first compound 0.02 µM) turn out when UMC-11 was run?
A: 0.927

Q: What about the relative viability ([1]; first compound 0.06325 µM) of the same cell line?
A: 1.09

Q: What about the relative viability ([1]; first compound 0.2 µM) of the same cell line?
A: 0.918

Q: What about the relative viability ([1]; first compound 0.6325 µM) of the same cell line?
A: 1.06

Q: What about the relative viability ([1]; first compound 2 µM) of the same cell line?
A: 0.822

Q: And the relative viability ([2]; first compound 0.02 µM)?
A: 0.837

Q: And the relative viability ([2]; first compound 0.06325 µM)?
A: 0.875

Q: And the relative viability ([2]; first compound 0.2 µM)?
A: 0.791

Q: And the relative viability ([2]; first compound 0.6325 µM)?
A: 0.776

Q: And the relative viability ([2]; first compound 2 µM)?
A: 0.598

Q: What about the relative viability ([3]; first compound 0.02 µM) of the same cell line?
A: 0.454

Q: And the relative viability ([3]; first compound 0.06325 µM)?
A: 0.519

Q: And the relative viability ([3]; first compound 0.2 µM)?
A: 0.514

Q: And the relative viability ([3]; first compound 0.6325 µM)?
A: 0.527

Q: And the relative viability ([3]; first compound 2 µM)?
A: 0.266

Q: What about the relative viability (SGI-1776 + Trametinib; first compound 0.08 µM) of the same cell line?
A: 0.719

Q: And the relative viability (SGI-1776 + Trametinib; first compound 0.8 µM)?
A: 0.684

Q: And the relative viability (SGI-1776 + Trametinib; first compound 2.53 µM)?
A: 0.787

Q: What about the relative viability (SGI-1776 + Trametinib; first compound 8 µM) of the same cell line?
A: 0.432
